How the values were obtained:
Ym1 = assay: Quantitative real-time PCR of lung tissue, Ym1; format: in vivo, mouse; conditions: vs PBS-treated group
Experimental: (§1) To measure the ability of MEL-dKLA to inhibit tumor metastasis, expression levels of CD44 known to interact with extracellular matrix ligand to promote metastasis and invasion and thus to be widely expressed in cancer, CCL22 known as M2-type macrophage marker, HIF-1α known as a marker of angiogenesis, metastasis and invasion, Ym1 as a marker of M2-type macrophage, and MMP-9 involved in the migration and settlement of tumor cells were measured via quantitative real-time PCR.
(§2) More specifically, RNA was extracted from lung tissue using an easy-BLUE RNA extraction kit (iNtRON Biotechnology, Korea). Then, cDNA was synthesized according to the manual for cyclescript reverse transcriptase (Bioneer, Korea). cDNA synthesis conditions were as follows: 15 seconds at 95, 10 seconds at 55, and 10 seconds at 72. Each reaction was conducted 3 times. […] Quantitative real-time PCR was performed using the SensiFAST SYBR no-Rox kit (Bioline, Korea).

[1] = tested on: mitochondria of M2-type macrophage; assay: Confocal localisation of TMR-conjugated peptides in mitochondria; format: cell-based, mouse; conditions: 1 μM TMR-conjugated peptide, 2 hours; for presence in mitochondria by image measurement: MitoTracker green
Experimental: In order to identify the invasion and location of MEL-dKLA into the mitochondria of M2-type macrophage, those were identified using fluorescence microscopy via staining. Further, PASCAL 5 LSM image measurement was performed for quantitative analysis.
More specifically, RAW264.7 macrophage was differentiated into M2 which in turn was incubated together with 1 μM TMR-conjugated dKLA, MEL or MEL-dKLA for 2 hours. The peptides that were not conjugated thereto were washed off, and then the cells were stained with 250 nM MitoTracker green (Invitrogen) for 30 minutes. After the staining, the cells were stained for 10 minutes in PBS to which 4 μg/mL 4′6-diamidino-2-phenylidole (DAPI; Sigma-Aldrich, MO, USA) was added. The stained cells were measured with a laser scanning confocal microscope (Carl Zeiss, Germany). The location of MEL-dKLA in the mitochondria was measured with an LSMS image meter (Carl Zeiss).

[2] = tested on: 4T1-luciferase breast cancer cells; assay: 4T1-luciferase breast cancer in mammary gland of NOD-SCID mice; format: in vivo, mouse; conditions: 175 nmol/kg once every 3 days; for luminescence level at the metastasis site / metastasis area (lymph nodes of the armpit and lungs): 4 weeks; for growth of breast cancer cells in mammary gland: NOD-SCID mice
Experimental: More specifically, to identify the effect of MEL-dKLA on tumor growth and metastasis when breast cancer cells were […] into the breast, 4T1-luciferase breast cancer cells (1×10^5) were injected into NOD-SCID mice as immunodeficient mice. From the time point when the tumor mass began to grow in the mammary gland No. 4 on 5 days after the injection, 175 nmol/kg of each of PBS, dKLA, MEL and MEL-dKLA was injected into each group once every 3 days. To measure the growth of the tumor, the size of the tumor was measured once every 3 days using a caliper device, and all tumor tissues were collected 4 weeks after the injection. On 4 weeks after the tumor transplantation, in order to identify metastasis of the tumor to the lymph nodes and lungs, D-luciferin as a substrate of luciferase enzyme was diluted to a concentration of 40 mg/ml and then, 100 μl thereof was administered to mice in an intraperitoneal administration mode. After reacting for about 15 minutes, luminescence was measured using NightOwl (Berthold Technologies) as an in vivo imaging device. Then, we analyzed the luminescence with pictures of mice to identify the level of metastasis to the whole body and lungs. The animal experiment was approved by the Animal Management Committee of Kyunghee University [KHUASP(SE)-18-133], and the animals were managed via autonomous feeding of water and food under a 12-hour light/dark cycle environment without pathogens.

HIF-1α = assay: Quantitative real-time PCR of lung tissue, HIF-1α; format: in vivo, mouse; conditions: vs PBS-treated group
Experimental: as §1, §2

MMP-9 = assay: Quantitative real-time PCR of lung tissue, MMP-9; format: in vivo, mouse
Experimental: as §1, §2

4T1 breast cancer cells = assay: 4T1 breast cancer model in BALB/c mice, lung nodules and H&E; format: in vivo, mouse; conditions: 175 nmol/kg at 3-day intervals; for nodules on the lung surface: 15 days after cancer cell injection
Experimental: More specifically, 4T1 breast cancer cells (1×10^5) were injected into BALB/c mice. Then, 3 days later, 175 nmol/kg of each of PBS, dKLA, MEL and MEL-dKLA was injected into each group at 3-day intervals. To investigate the level of metastasis and nodules on the lung surface, on 15 days after cancer cell injection, mice were sacrificed and the nodules on the lung surface were identified.
More specifically, for H&E staining, we immersed the tissue in a hematoxylin solution, stained the cell nucleus with a purple color. Then, we removed a remaining-stained portion except for the nucleus with an acidic alcohol solution, and immersed the tissue again in an eosin-added solution to stain the cytoplasm with a pink color. Then, the structure of the cell was observed.

CCL22 = assay: Quantitative real-time PCR of lung tissue, CCL22; format: in vivo, mouse; conditions: vs PBS-treated group
Experimental: as §1, §2

[3] = tested on: 4T1-luciferase breast cancer cells; assay: 4T1-luciferase tail vein metastaticity model in BALB/c mice; format: in vivo, mouse; conditions: 175 nmol/kg once every 3 days, 15 days after tail vein injection
Experimental: Additionally, 4T1-luciferase breast cancer cells (1×10^5) were injected into BALB/c mice through a tail vein in order to identify metastaticity of tumor cells. 3 days after the injection, 175 nmol/kg of each of PBS, dKLA, MEL and MEL-dKLA was injected into each group once every 3 days. 15 days after the cancer cell injection, D-luciferin as a substrate of luciferase enzyme was diluted to a concentration of 40 mg/ml, and then 100 μl thereof was administered to mice in an intraperitoneal administration mode, Then, reaction occurred for about 15 minutes. NightOwl (Berthold Technologies) was used in combination with photographs of mice to analyze the level of settlement and metastasis of cancer cells to the whole body and lungs.

Row | Compound | expression of Ym1 (Ym1) | correlation with mitochondria [1] | presence in mitochondria by image measurement [1] | luminescence level at the metastasis site [2] | metastasis area (lymph nodes of the armpit and lungs) [2] | growth of breast cancer cells in mammary gland [2] | expression of HIF-1α (HIF-1α) | expression of MMP-9 (MMP-9) | metastasis to the lung by H&E staining (4T1 breast cancer cells) | nodules on the lung surface (4T1 breast cancer cells) | number of nodules (4T1 breast cancer cells; lungs) | expression of CCL22 (CCL22) | metastaticity, luminescence of cancer cells throughout the whole body [3]
1 | CC[C@H](C)[C@H](NC(=O)CN)C(=O)NCC(=O)N[C@@H](C)C(=O)N[C@H](C(=O)N[C@@H](CC(C)C)C(=O)N[C@@H](CCCCN)C(=O)N[C@H](C(=O)N[C@@H](CC(C)C)C(=O)N[C@H](C(=O)N[C@H](C(=O)NCC(=O)N[C@@H](CC(C)C)C(=O)N1CCC[C@H]1C(=O)N[C@@H](C)C(=O)N[C@@H](CC(C)C)C(=O)N[C@H](C(=O)N[C@@H](CO)C(=O)N[C@@H](Cc1c[nH]c2ccccc12)C(=O)N[C@H](C(=O)N[C@@H](CCCCN)C(=O)N[C@@H](CCCNC(=N)N)C(=O)N[C@@H](CCCCN)C(=O)N[C@@H](CCCNC(=N)N)C(=O)N[C@@H](CCC(N)=O)C(=O)N[C@@H](CCC(N)=O)C(N)=O)[C@@H](C)CC)[C@@H](C)CC)[C@@H](C)O)[C@@H](C)O)C(C)C)C(C)C [MEL] | no significant difference | did not have any association with mitochondria | could not be identified therein | exhibited a tendency to decrease but did not exhibit significance | no significant difference from the PBS-treated group | did not occur significantly | not significantly different | lower compared to that in the PBS-treated group | relatively smaller metastasis occurred | no reduction thereof was observed | no significant decrease | not significantly different | metastasis was reduced
2 | d[KLAKLAKKLAKLAK] (D-amino acids) [dKLA, pro-apoptotic peptide KLA, used as control] | increased significantly | did not have any association with mitochondria | a small amount of dKLA was coupled to the cells | exhibited a tendency to decrease but did not exhibit significance | no significant difference from the PBS-treated group | did not occur significantly | not significantly different | high | tumor cells were widely spread and metastasis occurred | no reduction thereof was observed | – | not significantly different | measured at a high level throughout the body

— patent US11484601B2, “Targeting M2-like tumor-associated macrophages by using melittin-based proapoptotic peptide” (TWI[…]., priority 2018, dated 2022)
